Test [1] has as its system HEK293. Description: optical interference in Abeta FP readout, dose response, artefact control for IDE activator project, biochemical, fluorescence polarization (AID 588442). The class given is functional, cell-based. The following applies: Homo sapiens.
The target in test [2] is T1, Insulin-degrading enzyme (Homo sapiens, UniProt P14735).
T1 sequence (P14735 whole entry): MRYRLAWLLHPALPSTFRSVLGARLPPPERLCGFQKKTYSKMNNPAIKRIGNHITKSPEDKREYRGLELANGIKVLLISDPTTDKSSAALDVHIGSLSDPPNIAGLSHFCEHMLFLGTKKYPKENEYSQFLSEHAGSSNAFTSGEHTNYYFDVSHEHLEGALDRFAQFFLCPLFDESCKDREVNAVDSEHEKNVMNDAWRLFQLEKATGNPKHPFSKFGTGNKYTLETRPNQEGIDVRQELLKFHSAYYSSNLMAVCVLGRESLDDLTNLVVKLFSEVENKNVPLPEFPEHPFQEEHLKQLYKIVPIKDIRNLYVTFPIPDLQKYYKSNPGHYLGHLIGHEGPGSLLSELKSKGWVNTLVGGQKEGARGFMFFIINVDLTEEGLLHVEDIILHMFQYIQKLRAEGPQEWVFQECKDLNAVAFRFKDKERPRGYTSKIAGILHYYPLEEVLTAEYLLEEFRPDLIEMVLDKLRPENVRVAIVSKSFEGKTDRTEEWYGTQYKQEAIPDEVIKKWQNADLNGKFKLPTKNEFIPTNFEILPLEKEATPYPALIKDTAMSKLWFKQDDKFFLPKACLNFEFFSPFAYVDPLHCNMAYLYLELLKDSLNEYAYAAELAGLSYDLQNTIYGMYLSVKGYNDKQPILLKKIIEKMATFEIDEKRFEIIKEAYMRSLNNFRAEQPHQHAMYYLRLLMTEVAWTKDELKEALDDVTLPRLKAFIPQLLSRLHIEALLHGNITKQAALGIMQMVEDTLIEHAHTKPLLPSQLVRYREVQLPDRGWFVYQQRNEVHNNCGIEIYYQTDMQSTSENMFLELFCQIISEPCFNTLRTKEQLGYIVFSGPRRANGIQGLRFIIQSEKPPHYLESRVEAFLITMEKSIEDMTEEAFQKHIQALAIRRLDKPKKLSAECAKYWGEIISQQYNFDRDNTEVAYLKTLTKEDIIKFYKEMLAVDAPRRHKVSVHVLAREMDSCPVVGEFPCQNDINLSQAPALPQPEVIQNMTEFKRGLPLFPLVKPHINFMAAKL
As to the kind of experiment: activators of recombinant IDE enzyme, dose response, counter-screen for IDE activator project, biochemical, fluorescence polarization (AID 588681).

In test [3] the test system is HEK293. Description: HEK cell cytotoxicity by LDH release, dose response, cytotoxicity control for IDE activator project, fluorescence, HEK cells (AID 588440).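 Note: cytotoxicity by LDH release measuring loss of membrane integrity.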 The following applies: Homo sapiens. The test is classed as functional, cell-based.
Test [4] addresses T1, Insulin-degrading enzyme. Description: activators of endogenous IDE in HEK cells, dose response, cell-based, fluorescence polarization (AID 588439). The test is classed as functional.
In test [5] the target is T2, Orexin receptor type 2 (Homo sapiens, UniProt O43614).
T2 sequence (O43614 whole entry): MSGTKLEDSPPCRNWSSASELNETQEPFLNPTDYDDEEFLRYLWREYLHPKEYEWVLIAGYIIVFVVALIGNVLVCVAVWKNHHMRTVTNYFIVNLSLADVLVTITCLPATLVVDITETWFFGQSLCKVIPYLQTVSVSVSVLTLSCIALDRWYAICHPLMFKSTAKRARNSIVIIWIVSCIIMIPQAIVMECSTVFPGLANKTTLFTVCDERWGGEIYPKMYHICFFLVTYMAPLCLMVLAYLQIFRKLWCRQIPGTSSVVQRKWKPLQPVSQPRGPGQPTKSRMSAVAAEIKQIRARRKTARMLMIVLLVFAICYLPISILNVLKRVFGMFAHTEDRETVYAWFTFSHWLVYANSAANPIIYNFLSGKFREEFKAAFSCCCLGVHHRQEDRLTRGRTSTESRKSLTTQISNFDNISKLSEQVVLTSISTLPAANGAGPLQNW
Description: Counterscreen assay for antagonists of the orexin 1 receptor (OX1R; HCRTR1): Fluorescence-based cell-based dose response assay for antagonists of the orexin 2 receptor (OX2R; HCRTR2), run by assay provider. The test is classed as functional.

The test system of test [6] is CHO-K1. As to the kind of experiment: Counterscreen for antagonists of the orexin 1 receptor (OX1R; HCRTR1): Homogeneous time resolved fluorescence (HTRF)-based cell-based dose response assay to identify antagonists of the parental CHO-K1 cell line. [Related pubchem assays (depositor defined):AID434989, AID435008, AID463079, AID485270, AID492963, AID492964, AID492965, AID493232, AID504699, AID504701]. The class given is functional. The following applies: Cricetulus griseus.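 Note: potency for inhibition of ATP-stimulated IP1 production as antagonists.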

Test [7] has as its target T3, Orexin/Hypocretin receptor type 1 (Homo sapiens, UniProt O43613).
T3 sequence (O43613 whole entry): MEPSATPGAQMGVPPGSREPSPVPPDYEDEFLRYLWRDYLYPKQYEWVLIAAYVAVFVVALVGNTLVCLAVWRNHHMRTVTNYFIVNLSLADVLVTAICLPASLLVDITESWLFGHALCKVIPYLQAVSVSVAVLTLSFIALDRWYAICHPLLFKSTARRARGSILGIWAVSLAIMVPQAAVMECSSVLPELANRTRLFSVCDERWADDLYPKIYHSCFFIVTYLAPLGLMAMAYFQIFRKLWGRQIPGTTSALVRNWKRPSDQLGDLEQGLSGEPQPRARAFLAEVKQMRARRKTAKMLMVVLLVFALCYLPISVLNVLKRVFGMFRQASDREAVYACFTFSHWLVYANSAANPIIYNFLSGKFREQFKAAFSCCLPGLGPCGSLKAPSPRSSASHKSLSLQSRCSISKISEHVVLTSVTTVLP
Description: Fluorescence-based cell-based high throughput dose response assay for antagonists of the orexin 1 receptor (OX1R; HCRTR1). [Related pubchem assays (depositor defined):AID434989, AID435008, AID463079, AID485270, AID492963, AID492964, AID492965, AID493232, AID504717, AID504718]. The class given is functional.

In test [8] the target is T2, Orexin receptor type 2. As to the kind of experiment: Counterscreen assay for antagonists of the orexin 1 receptor (OX1R; HCRTR1): Homogeneous Time Resolved Fluorescence (HTRF)-based cell-based dose response assay for antagonists of the orexin 2 receptor (OX2R; HCRTR2), run by assay provider. The class given is functional.
Test [9] is described as follows: Counterscreen for antagonists of the orexin 1 receptor (OX1R; HCRTR1): Fluorescence-based cell-based high throughput dose response assay to identify antagonists of the parental CHO cell line. [Related pubchem assays (depositor defined):AID434989, AID435008, AID463079, AID485270, AID492963, AID492964, AID492965, AID493232, AID504699, AID504701]. The test is classed as functional.

The target in test [10] is T3, Orexin/Hypocretin receptor type 1. As to the kind of experiment: Homogeneous Time Resolved Fluorescence (HTRF)-based cell-based high throughput dose response assay for antagonists of the orexin 1 receptor (OX1R; HCRTR1). [Related pubchem assays (depositor defined):AID434989, AID435008, AID463079, AID485270, AID492963, AID492964, AID492965, AID493232, AID504717, AID504718]. The class given is functional.

Test [11] deals with T4, Polyadenylate-binding protein 1 (Homo sapiens, UniProt P11940). As to the kind of experiment: PABP1 MLLE–PAM2 binding inhibitor potency, dose response, biochemical, fluorescence polarization, FITC-PAM2 peptide (AID 602259). The test is classed as functional. The conditions noted are these: read-out: IC50_Mean.
Test [12] addresses T4, Polyadenylate-binding protein 1. Description: PABP1 MLLE–PAM2 interaction inhibitors, dose response, miRNA deadenylation inhibitor project, biochemical, fluorescence polarization, Cy5-PAM2 peptide, secondary (AID 602260). The test is classed as functional. The following applies: read-out: IC50_Mean.
Test [13] deals with T5, Ubiquitin-conjugating enzyme E2 N (Homo sapiens, UniProt P61088).
T5 sequence (P61088 whole entry): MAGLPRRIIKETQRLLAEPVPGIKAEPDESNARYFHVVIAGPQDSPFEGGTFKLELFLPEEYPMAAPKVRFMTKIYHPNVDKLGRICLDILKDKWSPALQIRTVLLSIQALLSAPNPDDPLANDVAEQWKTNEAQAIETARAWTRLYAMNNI
The test is classed as functional.

Test [14] has as its target T6, Bcl-2-related protein A1 (Mus musculus, UniProt Q07440).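 Note: confirmatory dose–response counterscreen on Bfl-1, used to check hits from a UBC13 polyubiquitin inhibitor campaign.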
T6 sequence (Q07440 whole entry): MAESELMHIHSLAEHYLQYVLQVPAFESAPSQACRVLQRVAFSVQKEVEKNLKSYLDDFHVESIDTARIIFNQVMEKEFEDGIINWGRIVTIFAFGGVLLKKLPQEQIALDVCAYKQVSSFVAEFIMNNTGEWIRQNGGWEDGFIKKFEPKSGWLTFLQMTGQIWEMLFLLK
The test is classed as functional.

Test [15] addresses T5, Ubiquitin-conjugating enzyme E2 N. The class given is functional. The source holds these as a separate data set.
For test [16], the target named is Macrophage-stimulating protein receptor (Homo sapiens, UniProt Q04912). As to the kind of experiment: Navigating the Kinome. Panel member name: MST1R. The class given is functional.
The target in test [17] is ALK tyrosine kinase receptor (Homo sapiens, UniProt Q9UM73). The test is classed as functional.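 Note: ALK tested as one member of a kinase panel screen.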
The target of test [18] is LIM domain kinase 1 (Homo sapiens, UniProt P53667). As to the kind of experiment: Navigating the Kinome. Panel member name: LIMK1. The test is classed as functional.
The target of test [19] is Dual specificity tyrosine-phosphorylation-regulated kinase 1B (Homo sapiens, UniProt Q9Y463). Description: Navigating the Kinome. Panel member name: DYRK1B. The class given is functional.

Active and inactive are the calls of the source. Where only a bound is given, the exact number is not on record here.

T4 sequence (P11940 whole entry): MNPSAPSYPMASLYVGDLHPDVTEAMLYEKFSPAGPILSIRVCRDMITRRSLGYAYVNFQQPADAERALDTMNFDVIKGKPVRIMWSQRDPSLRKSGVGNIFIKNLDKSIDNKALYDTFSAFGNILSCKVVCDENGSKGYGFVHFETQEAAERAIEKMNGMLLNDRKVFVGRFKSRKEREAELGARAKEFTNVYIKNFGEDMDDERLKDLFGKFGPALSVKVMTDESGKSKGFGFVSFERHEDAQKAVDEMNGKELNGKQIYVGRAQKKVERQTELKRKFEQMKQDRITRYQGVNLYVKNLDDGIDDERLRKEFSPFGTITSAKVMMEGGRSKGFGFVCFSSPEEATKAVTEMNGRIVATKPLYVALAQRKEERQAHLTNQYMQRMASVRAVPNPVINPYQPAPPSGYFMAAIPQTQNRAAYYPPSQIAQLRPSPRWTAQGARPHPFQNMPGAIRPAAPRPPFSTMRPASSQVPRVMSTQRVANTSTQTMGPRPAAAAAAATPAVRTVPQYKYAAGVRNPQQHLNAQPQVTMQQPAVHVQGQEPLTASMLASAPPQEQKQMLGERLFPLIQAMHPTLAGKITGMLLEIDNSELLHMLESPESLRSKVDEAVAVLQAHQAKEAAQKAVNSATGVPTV
LIM domain kinase 1, sequence (P53667 whole entry, the tested form may be a part): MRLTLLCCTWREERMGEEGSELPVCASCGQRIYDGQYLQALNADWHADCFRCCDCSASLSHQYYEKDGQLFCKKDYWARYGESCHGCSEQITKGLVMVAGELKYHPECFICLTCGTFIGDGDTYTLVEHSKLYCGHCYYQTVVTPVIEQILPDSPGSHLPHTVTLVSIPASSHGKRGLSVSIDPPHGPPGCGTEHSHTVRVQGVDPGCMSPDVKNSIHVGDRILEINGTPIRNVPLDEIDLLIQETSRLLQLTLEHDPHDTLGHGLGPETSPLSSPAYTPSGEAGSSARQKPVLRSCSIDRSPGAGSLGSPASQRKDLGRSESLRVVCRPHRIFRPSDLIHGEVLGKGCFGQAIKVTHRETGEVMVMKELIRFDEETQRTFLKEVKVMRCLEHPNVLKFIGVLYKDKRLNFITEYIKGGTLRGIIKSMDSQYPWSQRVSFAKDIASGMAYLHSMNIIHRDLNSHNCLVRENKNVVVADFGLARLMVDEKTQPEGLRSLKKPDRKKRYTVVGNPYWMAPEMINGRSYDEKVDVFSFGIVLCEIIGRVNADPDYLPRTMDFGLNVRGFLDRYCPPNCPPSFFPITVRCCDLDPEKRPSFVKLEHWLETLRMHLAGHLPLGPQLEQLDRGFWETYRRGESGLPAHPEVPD
ALK tyrosine kinase receptor, sequence (Q9UM73 whole entry, the tested form may be a part): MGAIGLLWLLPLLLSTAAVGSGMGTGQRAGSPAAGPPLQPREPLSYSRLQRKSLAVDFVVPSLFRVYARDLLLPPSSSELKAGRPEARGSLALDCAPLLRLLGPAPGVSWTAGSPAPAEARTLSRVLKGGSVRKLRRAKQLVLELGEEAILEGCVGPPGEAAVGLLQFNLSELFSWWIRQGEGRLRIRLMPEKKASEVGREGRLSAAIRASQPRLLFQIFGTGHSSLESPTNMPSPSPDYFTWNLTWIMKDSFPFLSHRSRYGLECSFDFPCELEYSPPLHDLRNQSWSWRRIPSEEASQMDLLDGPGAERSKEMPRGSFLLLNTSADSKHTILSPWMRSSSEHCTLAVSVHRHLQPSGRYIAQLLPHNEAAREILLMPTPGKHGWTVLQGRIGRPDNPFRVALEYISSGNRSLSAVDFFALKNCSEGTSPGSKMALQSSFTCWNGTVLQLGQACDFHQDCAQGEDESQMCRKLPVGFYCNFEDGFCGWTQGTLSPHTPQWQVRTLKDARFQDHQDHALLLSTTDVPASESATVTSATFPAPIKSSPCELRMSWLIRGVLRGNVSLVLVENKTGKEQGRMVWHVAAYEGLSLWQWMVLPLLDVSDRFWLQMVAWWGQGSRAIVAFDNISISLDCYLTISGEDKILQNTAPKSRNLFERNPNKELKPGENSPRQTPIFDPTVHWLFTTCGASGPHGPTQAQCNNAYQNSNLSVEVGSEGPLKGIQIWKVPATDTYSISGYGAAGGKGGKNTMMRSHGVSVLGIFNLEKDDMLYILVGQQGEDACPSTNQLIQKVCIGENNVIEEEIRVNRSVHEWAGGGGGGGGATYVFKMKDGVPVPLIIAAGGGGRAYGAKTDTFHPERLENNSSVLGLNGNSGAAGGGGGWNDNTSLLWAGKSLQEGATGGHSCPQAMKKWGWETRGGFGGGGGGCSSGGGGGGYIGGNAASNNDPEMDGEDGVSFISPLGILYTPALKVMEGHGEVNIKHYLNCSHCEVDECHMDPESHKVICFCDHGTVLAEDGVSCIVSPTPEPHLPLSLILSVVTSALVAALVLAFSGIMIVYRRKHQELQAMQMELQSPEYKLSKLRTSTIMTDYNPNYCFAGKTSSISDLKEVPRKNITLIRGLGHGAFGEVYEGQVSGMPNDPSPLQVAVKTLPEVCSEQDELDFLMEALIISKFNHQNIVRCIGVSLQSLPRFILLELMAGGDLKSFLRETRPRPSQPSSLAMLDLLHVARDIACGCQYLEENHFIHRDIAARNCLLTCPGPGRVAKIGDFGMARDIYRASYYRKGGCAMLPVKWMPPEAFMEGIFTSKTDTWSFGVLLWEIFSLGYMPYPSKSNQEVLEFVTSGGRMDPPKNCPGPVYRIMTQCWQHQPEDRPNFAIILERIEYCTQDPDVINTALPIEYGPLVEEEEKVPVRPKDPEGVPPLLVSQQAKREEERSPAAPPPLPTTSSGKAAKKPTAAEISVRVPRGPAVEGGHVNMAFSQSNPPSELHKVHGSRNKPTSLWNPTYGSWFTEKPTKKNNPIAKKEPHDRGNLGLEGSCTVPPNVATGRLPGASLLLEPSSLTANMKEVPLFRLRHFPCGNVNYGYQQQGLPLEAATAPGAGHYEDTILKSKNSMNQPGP
Macrophage-stimulating protein receptor, sequence (Q04912 25-304 limits assumed): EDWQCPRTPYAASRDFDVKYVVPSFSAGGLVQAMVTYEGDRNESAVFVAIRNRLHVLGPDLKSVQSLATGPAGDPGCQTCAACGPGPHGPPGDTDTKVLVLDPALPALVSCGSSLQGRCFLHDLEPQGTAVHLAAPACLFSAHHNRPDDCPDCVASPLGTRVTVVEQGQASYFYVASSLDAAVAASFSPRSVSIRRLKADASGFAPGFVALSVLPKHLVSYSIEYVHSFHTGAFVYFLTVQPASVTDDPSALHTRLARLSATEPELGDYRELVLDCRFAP
Macrophage-stimulating protein receptor, sequence (Q04912 310-1400 limits assumed): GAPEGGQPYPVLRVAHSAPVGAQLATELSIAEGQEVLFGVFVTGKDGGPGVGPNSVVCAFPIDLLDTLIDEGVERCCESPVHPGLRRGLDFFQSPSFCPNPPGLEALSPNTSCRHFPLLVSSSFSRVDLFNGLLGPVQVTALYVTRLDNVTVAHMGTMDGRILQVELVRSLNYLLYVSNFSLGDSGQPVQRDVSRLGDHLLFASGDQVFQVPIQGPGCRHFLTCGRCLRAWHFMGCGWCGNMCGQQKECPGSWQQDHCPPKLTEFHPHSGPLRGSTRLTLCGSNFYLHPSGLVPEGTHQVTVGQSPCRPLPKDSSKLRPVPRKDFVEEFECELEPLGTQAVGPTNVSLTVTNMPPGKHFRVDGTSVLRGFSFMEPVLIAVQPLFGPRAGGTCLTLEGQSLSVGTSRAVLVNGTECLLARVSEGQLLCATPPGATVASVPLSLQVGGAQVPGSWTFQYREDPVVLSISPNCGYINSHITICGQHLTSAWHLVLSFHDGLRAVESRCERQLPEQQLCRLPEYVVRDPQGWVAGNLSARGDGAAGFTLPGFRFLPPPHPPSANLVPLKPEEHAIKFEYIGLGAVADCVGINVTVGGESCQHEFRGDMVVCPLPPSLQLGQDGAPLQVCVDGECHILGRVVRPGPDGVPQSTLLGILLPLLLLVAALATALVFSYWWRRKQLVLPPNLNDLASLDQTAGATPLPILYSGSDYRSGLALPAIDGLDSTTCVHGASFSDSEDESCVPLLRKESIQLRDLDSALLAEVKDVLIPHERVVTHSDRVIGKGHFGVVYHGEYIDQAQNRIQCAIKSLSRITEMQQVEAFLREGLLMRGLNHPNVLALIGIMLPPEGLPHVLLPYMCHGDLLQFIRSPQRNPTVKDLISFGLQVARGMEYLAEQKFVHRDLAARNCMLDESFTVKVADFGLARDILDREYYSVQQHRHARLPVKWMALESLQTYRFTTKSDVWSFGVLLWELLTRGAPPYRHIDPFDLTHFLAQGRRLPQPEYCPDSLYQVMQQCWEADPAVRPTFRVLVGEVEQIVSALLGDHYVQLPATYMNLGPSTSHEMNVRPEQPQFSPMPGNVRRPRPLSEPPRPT
Dual specificity tyrosine-phosphorylation-regulated kinase 1B, sequence (Q9Y463 whole entry): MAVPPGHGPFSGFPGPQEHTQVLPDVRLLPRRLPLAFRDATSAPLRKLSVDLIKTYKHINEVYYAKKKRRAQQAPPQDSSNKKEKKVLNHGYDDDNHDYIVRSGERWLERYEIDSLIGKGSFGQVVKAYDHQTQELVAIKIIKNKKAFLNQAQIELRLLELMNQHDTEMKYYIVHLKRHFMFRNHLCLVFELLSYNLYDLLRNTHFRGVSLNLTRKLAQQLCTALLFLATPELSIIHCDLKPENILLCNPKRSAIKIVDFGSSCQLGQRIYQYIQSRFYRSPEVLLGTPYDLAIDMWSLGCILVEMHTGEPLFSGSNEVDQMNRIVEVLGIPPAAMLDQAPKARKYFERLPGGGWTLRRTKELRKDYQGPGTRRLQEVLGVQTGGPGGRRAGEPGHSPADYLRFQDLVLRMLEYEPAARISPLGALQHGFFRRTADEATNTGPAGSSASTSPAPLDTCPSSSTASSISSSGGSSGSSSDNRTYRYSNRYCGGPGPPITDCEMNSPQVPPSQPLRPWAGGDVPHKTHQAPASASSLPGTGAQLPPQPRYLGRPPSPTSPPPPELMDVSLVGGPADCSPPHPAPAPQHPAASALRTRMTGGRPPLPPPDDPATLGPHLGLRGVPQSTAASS

As for `O=C(c1ccccc1)C1NC1c1ccccc1` (centres undefined), the EC50 in test [1], in [2] and in test [4] was > 54.7 µM (inactive) each time. For the same compound, the IC50 in test [3] is > 89.3 µM (inactive).
On to `Cc1ccc(N(C)S(=O)(=O)c2cccc(C(=O)NCC(c3cccs3)N3CCOCC3)c2)cc1` (centres undefined), for which the IC50 in test [5] is > 88.8 µM (inactive); in test [6] it was > 66.2 µM (inactive); in test [7], 12 µM (inactive); in [8], 3.35 µM (active); in test [9] it was > 49.8 µM (inactive); in [10], 0.715 µM (active).
Take `O=C(NC(=S)Nc1cccc2cccnc12)c1cccs1`: the IC50 is > 66 µM (inactive) in [11]; > 88.8 µM (inactive) in test [5]; > 66.2 µM (inactive) in test [6]; > 5.52 µM (active) in test [7]; > 66 µM (inactive) in test [12]; > 50 µM (inactive) in [8]. In addition, the values for the IC50 in [9] and in test [10] were > 49.7 µM (inactive) and > 0.00331 µM (active), respectively.
As to `C#CCOCCOCCOCCNc1nc(N2CCN(C(=O)CCCCCCCCCCNC(=O)[C@H](CCCCN)n3cc(C[C@@H](C)CC)nn3)CC2)nc(N2CCN(C(=O)CCCCCCCCCCNC(=O)[C@H](CCCN=C(N)N)n3cc(C[C@@H](C)CC)nn3)CC2)n1`, the IC50 in test [13] is 2 µM (active); in test [14], 4.6 µM (active); in [3], 2.17 µM (active); in test [15], 1.44 µM (active). The EC50 in [1] is > 54.7 µM (inactive); in test [2], > 2.03 µM (active); in [4], > 2.03 µM (active).
Consider `Nc1ccc2cc(NCCc3ccccc3)cc(Nc3ncccn3)c2n1`, for which the inhibitory constant (Ki) in [16] is 3.16 µM (active); in [17], 1.58 µM (active); in test [18], 0.631 µM (active); in test [19] it was 2 µM (active).
